Data: patent publication US20240376056A1, “PHENYL ACETAMIDE BASED IL-17A MODULATORS AND USES THEREOF” (DiCE Alpha, Inc., priority 2021, published 2024)

Molecular target: T1, IL-17A/A (Homo sapiens, UniProt Q16552)
T1 construct: purchased Genscript Z03228
T1 sequence (Q16552 24-155): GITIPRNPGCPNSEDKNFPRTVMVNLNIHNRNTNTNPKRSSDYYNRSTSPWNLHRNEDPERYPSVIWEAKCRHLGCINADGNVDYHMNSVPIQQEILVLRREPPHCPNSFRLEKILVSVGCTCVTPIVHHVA
Assay: HEK-Blue IL-17A/A inhibition assay (SEAP reporter)
Format: cell-based
Conditions: HEK-Blue cells (HEK 293 expressing IL-17RA, IL-17RC, Act1); IL-17A/A stimulation; 20 hours; SEAP read at A630; 4-parameter fit
Method: The HEK-Blue #NC108637 […]. Cells were grown and prepared for assays according to the manufacturer's instructions. This cell line consists of HEK 293 cells that were designed to expressed IL-17R^A, IL-17RC, and the ActI adapter molecule, the combination of which. when stimulated by IL-17A/A activates a NFtcB promoter and drives expression of a recombinant Secreted Alkaline Phosphatase (SEAP) geneprotein. Media from the cells is then added to a development reagent (Quanti-Blue Substrate, Fisher #NC971 1613), and read at A630.
Compounds were titrated in DMSO. with a top final compound concentration of 10 uM, 1 uM, or 0.3 uM, and added to the cells immediately before adding IL-17A/A (Genscript #Z03228). The cells, compound, and IL-17A/A were then incubated for 20 hours before media was removed for SEAP analysis. The resulting inhibition curve was then analyzed using Graphpad Prism 7.0, and IC50 values were determined using a 4-parameter nonlinear fit. DMSO was added to a universal final concentration of 0.1% to optimze background.

Row | IC50 [µM] | SMILES
1 | 0.1 to 1 | CCn1nccc1C(=O)N[C@H](C(=O)Nc1ccc([C@H](C)C(=O)N(C)CC(F)(F)F)cc1F)[C@H]1CCc2ccccc21 [Compound 90, N-((S)-1-((S)-2,3-dihydro-1H-inden-1-yl)-2-((2-fluoro-4-((S)-1-(methyl(2,2,2-trifluoroethyl)amino)-1-oxopropan-2-yl)phenyl)amino)-2-oxoethyl)-1-ethyl-1H-pyrazole-5-carboxamide]
2 | > 1 | CC(C(=O)NCC(F)(F)F)c1cc(F)c(NC(=O)[C@@H](NC(=O)c2ccnn2C(C)C)C(C2CC2)C2CC2)cc1Nc1ccccn1 (single isomer, unassigned) [Compound 261]
3 | < 0.1 | CCn1nccc1C(=O)N[C@H](C(=O)Nc1cc(C)c(C(C)C(=O)N(C)CC(F)(F)F)cc1F)[C@H]1CC[C@H](C)CC1 (some centres unmarked) [Compound 202]
4 | < 0.1 | CCOC(=O)Nc1cc(NC(=O)[C@@H](NC(=O)c2ccnn2C(C)C)C(C2CC2)C2CC2)c(F)cc1C(C)C(=O)NCC(F)(F)F (single isomer, unassigned) [Compound 158]
5 | < 0.1 | Cc1cc(NC(=O)[C@@H](NC(=O)c2ccnn2C(C)C)C(C2CC2)C2CC2)c(F)cc1C(C)C(=O)NC(C1CCOC1)C(F)(F)F (some centres unmarked) [Compound 209]
6 | > 1 | CC(C(=O)N1CCCN1)c1ccc(NC(=O)[C@@H](NC(=O)c2ccnn2C(C)C)C(C2CC2)C2CC2)c(F)c1 (some centres unmarked) [Compound 235]
7 | 0.1 to 1 | CC(C)n1nccc1C(=O)N[C@H](C(=O)Nc1ccc([C@H](C)C(=O)NC2CC2C(F)F)cc1F)C(C1CC1)C1CC1 (stereo partly drawn) [Compound 25, N-((2S)-1.1-dicyclopropyl-3-((4-((2S)-1-((2-(difluoromethyl)cyclopropyl)amino)-1-oxopropan-2-yl)-2-fluorophenyl)amino)-3-oxopropan-2-yl)-1-isopropyl-1H-pyrazole-5-carboxamide]
8 | < 0.1 | Cc1cc(NC(=O)[C@@H](NC(=O)c2ccnn2C(C)C)C(C2CC2)C2CC2)c(F)cc1[C@H](C)C(=O)NCC(F)(F)F (single isomer, unassigned) [Compound 98]
9 | 0.1 to 1 | CCn1nccc1C(=O)N[C@H](C(=O)Nc1ccc([C@H](C)C(=O)N2CC(F)(F)C2)cc1F)C(C1CC1)C1CC1 [Compound 15, N-((S)-1,1-dicyclopropyl-3-((4-((S)-1-(3,3-difluoroazetidin-1-yl)-1-oxopropan-2-yl)-2-fluorophenyl)amino)-3-oxopropan-2-yl)-1-ethyl-1H-pyrazole-5-carboxamide]
10 | 0.1 to 1 | CC(C(=O)N(C)CC(F)(F)F)c1cc(F)c(NC(=O)[C@@H](NC(=O)c2ccnn2C(C)C)C(C2CC2)C2CC2)cc1CNCCO (some centres unmarked) [Compound 227]
11 | 0.1 to 1 | CCn1nccc1C(=O)N[C@H](C(=O)Nc1ccc([C@H](C)C(=O)NC(CCO)C(F)(F)F)cc1F)C(C1CC1)C1CC1 (stereo partly drawn) [Compound 12, N-((2S)-1,1-dicyclopropyl-3-((2-fluoro-4-((2S)-1-oxo-1-((1,1,1-trifluoro-4-hydroxybutan-2-yl)amino)propan-2-yl)phenyl)amino)-3-oxopropan-2-yl)-1-ethyl-1H-pyrazole-5-carboxanude]
12 | 0.1 to 1 | CCn1nccc1C(=O)N[C@H](C(=O)Nc1ccc([C@H](C)C(=O)N(C)CC(F)(F)F)cc1F)C1CCC(F)(F)CC1 [Compound 74, N-((S)-1-(4,4-difluorocyclohexyl)-2-((2-fluoro-4-((S)-1-(methyl(2,2,2-trifluoroethyl)amino)-1-oxopropan-2-yl)phenyl)amino)-2-oxoethyl)-1-ethyl-1H-pyrazole-5-carboxamide]
13 | > 1 | CC(C(=O)N(CC(N)=O)CC(F)(F)F)c1ccc(NC(=O)[C@@H](NC(=O)c2ccnn2C(C)C)C(C2CC2)C2CC2)c(F)c1 (single isomer, unassigned) [Compound 138]
14 | 0.1 to 1 | CC(C(=O)NCC(F)(F)F)c1cc(F)c(NC(=O)[C@@H](NC(=O)c2ccnn2C(C)C)C(C2CC2)C2CC2)cc1CS(C)(=N)=O (some centres unmarked) [Compound 260]
15 | 0.1 to 1 | CCN(CC(F)(F)F)C(=O)C(C)c1ccc(NC(=O)[C@@H](NC(=O)c2ccnn2CC)C2CCCCCC2)c(F)c1 (single isomer, unassigned) [Compound 70]
16 | < 0.1 | CCn1nccc1C(=O)N[C@H](C(=O)Nc1ccc([C@H](C)C(=O)N(C)CC(F)(F)F)cc1F)C(C1CC1)C1CC1 [Compound 68, N-((S)-1,1-dicyclopropyl-3-((2-fluoro-4-((S)-1-(methyl(2,2,2-trifluoroethyl)amino)-1-oxopropan-2-yl)phenyl)amino)-3-oxopropan-2-yl)-1-ethyl-1H-pyrazole-5-carboxamide]

Row | IC50 [µM] | SMILES
17 | > 1 | Cc1cc(NC(=O)[C@@H](NC(=O)c2ccnn2C)C(C2CC2)C2CC2)c(F)cc1C(C)C(=O)NCC(F)(F)F (some centres unmarked) [Compound 222]
18 | > 1 | CCn1nccc1C(=O)N[C@H](C(=O)Nc1cc(OC(F)(F)F)c(C(C)C(=O)NCC(F)(F)F)cc1F)C(C1CC1)C1CC1 (some centres unmarked) [Compound 248]
19 | 0.1 to 1 | CCN(C)C(=O)C(C)c1cc(F)c(NC(=O)[C@@H](NC(=O)c2ccnn2CC)C(C2CC2)C2CC2)cc1C (some centres unmarked) [Compound 243]
20 | > 1 | CC(C)n1nccc1C(=O)N[C@H](C(=O)Nc1ccc([C@H](C)C(=O)NC2(C(F)(F)F)CNC2)cc1F)C(C1CC1)C1CC1 [Compound 52, N-((S)-1.1-dicyclopropyl-3-((2-fluoro-4-((S)-1-oxo-1-((3-(trifluoromethyl)azetidin-3-yl)amino)propan-2-yl)phenyl)amino)-3-oxopropan-2-yl)-1-isopropyl-1H-pyrazole-5-carboxamide]
21 | 0.1 to 1 | CC(C)n1nccc1C(=O)N[C@H](C(=O)Nc1ccc([C@H](C)C(=O)NCC(F)F)cc1F)C(C1CC1)C1CC1 [Compound 17, N-((S)-1,1-dicyclopropyl-3-((4-((S)-1-((2,2-difluoroethyl)amino)-1-oxopropan-2-yl)-2-fluorophenyl)amino)-3-oxopropan-2-yl)-1-isopropyl-1H-pyrazole-5-carboxanide]
22 | 0.1 to 1 | CC(C)n1nccc1C(=O)N[C@H](C(=O)Nc1ccc([C@H](C)C(=O)NC(c2ccccc2)C(F)(F)F)cc1F)C(C1CC1)C1CC1 (stereo partly drawn) [Compound 66, N-((2S)-1,1-dicyclopropyl-3-((2-fluoro-4-((2S)-1-oxo-1-((2,2,2-trifluoro-1-phenylethyl)amino)propan-2-yl)phenyl)amino)-3-oxopropan-2-yl)-1-isopropyl-1H-pyrazole-5-carboxamide]
23 | > 1 | CC(C)n1nccc1C(=O)N[C@H](C(=O)Nc1ccc([C@H](C)C(=O)NC2(C(F)(F)F)COC2)cc1F)C(C1CC1)C1CC1 [Compound 43, N-((S)-1.1-dicyclopropyl-3-((2-fluoro-4-((S)-1-oxo-1-((3-(trifluoromethyl)oxetan-3-yl)amino)propan-2-yl)phenyl)amino)-3-oxopropan-2-yl)-1-isopropyl-1H-pyrazole-5-carboxamide]
24 | > 1 | COCC(C(=O)NCC(F)(F)F)c1ccc(NC(=O)[C@@H](NC(=O)c2ccnn2C(C)C)C(C2CC2)C2CC2)c(F)c1 (single isomer, unassigned) [Compound 104]
25 | 0.1 to 1 | CC(C(=O)N1CCC(C(N)=O)C1C(F)(F)F)c1cc(F)c(NC(=O)[C@@H](NC(=O)c2ccnn2C(C)C)C(C2CC2)C2CC2)cc1C(F)(F)F (some centres unmarked) [Compound 228]
26 | 0.1 to 1 | CC(C)n1nccc1C(=O)N[C@H](C(=O)Nc1ccc(C(C)(C)C(=O)NCC(F)(F)F)cc1F)C(C1CC1)C1CC1 [Compound 107, (S)-N-(1.1-dicyclopropyl-3-((2-fluoro-4-(2-methyl-1-oxo-1-((2,2,2-trifluoroethyl)amino)propan-2-yl)phenyl)amino)-3-oxopropan-2-yl)-1-isopropyl-1H-pyrazole-5-carboxamide]
27 | 0.1 to 1 | CCc1cc(NC(=O)[C@@H](NC(=O)c2ccnn2C(C)C)C(C2CC2)C2CC2)c(F)cc1[C@@H](C)C(=O)NCC(F)(F)F [Compound 112, N-((S)-1,1-dicyclopropyl-3-((5-ethyl-2-fluoro-4-((R)-1-oxo-1-((2,2,2-trifluoroethyl)amino)propan-2-yl)phenyl)amino)-3-oxopropan-2-yl)-1-isopropyl-1H-pyrazole-5-carboxamide]
28 | > 1 | CCn1nccc1C(=O)N[C@H](C(=O)Nc1ccc(C(COC)C(=O)N(C)CC(F)(F)F)cc1F)C1CCCCCC1 (single isomer, unassigned) [Compound 102, N—((I S)-1-cycloheptyl-2-((2-fluoro-4-(3-methoxy-1-(methyl(2,2,2-trifluoroethyl)amino)-1-oxopropan-2-yl)phenyl)amino)-2-oxoethyl)-1-ethyl-1H-pyrazole-5-carboxamide]
29 | 0.1 to 1 | Cc1cc(NC(=O)[C@@H](NC(=O)c2ccnn2C)C2CCC(F)(F)CC2)c(F)cc1C(C)C(=O)N(C)CC(F)(F)F (some centres unmarked) [Compound 216]
30 | > 1 | CCNC(=O)C(C)c1cc(F)c(NC(=O)[C@@H](NC(=O)c2ccnn2CC)C(C2CC2)C2CC2)cc1C (some centres unmarked) [Compound 244]
31 | > 1 | CC(=O)NC(C(=O)NCC(F)(F)F)c1ccc(NC(=O)[C@@H](NC(=O)c2ccnn2C(C)C)C(C2CC2)C2CC2)c(F)c1 (some centres unmarked) [Compound 190]
32 | < 0.1 | CC(C(=O)N(C)CC(F)(F)F)c1cc(F)c(NC(=O)[C@@H](NC(=O)c2ccnn2C(C)C)C(C2CC2)C2CC2)cc1N(C)C (single isomer, unassigned) [Compound 162]
